Residues, ends and D or L forms follow the SMILES beside them. *: point of attachment. Cbz = O=C(OCc1ccccc1)*
Columns and labels:
AR [1] = assay: Western blot of AR protein levels, VCaP cells; format: cell-based; settings: TSA or increasing concentrations of CDDO-Imidazole (24 hours), compared with sulforaphane results
HDAC6 [2] = assay: Western blot of HDAC6 protein levels, LNCaP cells; format: cell-based; settings: LNCaP cells
acetylated alpha-tubulin = assay: Western blot of acetylated alpha-tubulin, LNCaP cells; format: cell-based; settings: LNCaP cells; increasing concentrations of CDDO-Imidazole, 24 hours
Method: (§1) The vehicle sample was set to 1.
LNCaP cells were transiently transfected with either a siRNA sequence complementary to the luciferase gene ([…]; SEQ ID NO: 8) or to HDAC6 ([…]; SEQ ID NO: 9) using DharmaFECT 3 transfection reagent for a final concentration of 100 nM (Dharmacon, Lafayette, Colo.). At 48, 72, and 96 hours post-transfection, cells were harvested. Levels of protein expression by Western blot were quantified.

HDAC6 [3] = assay: Western blot of HDAC6 protein levels, VCaP cells; format: cell-based; settings: increasing concentrations of CDDO-Imidazole, 24 hours
Excerpt: as §1

acetylated tubulin = assay: Western blot of acetylated tubulin, VCaP cells; format: cell-based; settings: increasing concentrations of CDDO-Imidazole, 24 hours
Excerpt: as §1

AR [4] = assay: Western blot of AR protein levels, LNCaP cells; format: cell-based; settings: LNCaP cells
Her2Neu protein = settings: breast cancer cells; through proteasomal degradation; cited from earlier work
AR [5] = assay: Western blot of AR protein levels, LNCaP cells; format: cell-based
Method: Immunoprecipitation and immunoblotting were performed as described (Qian et al., Clin. Cancer Res. 12:634-42, 2006). The following antibodies used in immunoblotting or immunoprecipitations (indicated dilutions are for immunoblotting): AR (1:1000, #06-680 Upstate, Billerica, Mass.); acetylated lysine (#05-515 Upstate, Billerica, Mass.); acetylated tubulin (1:2000, #T6793 Sigma, St. Louis, Mo.); alpha-tubulin (1:10,000, #T6074 Sigma, St. Louis, Mo.); beta-actin (1:5000, #A5441 Sigma, St. Louis, Mo.); ERG-1/2/3, (1:5000, #sc-354X Santa Cruz, Santa Cruz, Calif.); FLAG epitope (#F7425 Sigma, St. Louis, Mo.); GAPDH (1:5000, #sc-32233 Santa Cruz, Santa Cruz, Calif.); HDAC6 (1:1000, #sc-11420 Santa Cruz); HSP90 (1:1000, #SPA-840 Stressgen, Ann Arbor, Mich.); mouse IgG (#sc-2025 Santa Cruz, Santa Cruz, Calif.). The following secondary antibodies were used: ECL-conjugated anti-mouse IgG, (1:5000, #A6782 Sigma, St. Louis, Mo.); ECL-conjugated anti-rabbit IgG (1:3000, #NA934 Amersham, Piscataway, N.J. or 1:10,000, #sc-2004 Santa Cruz, Santa Cruz, Calif.). X-ray exposures were scanned as uncompressed images and bands were quantified by densitometry with Quantity One software (Bio-Rad, Hercules, Calif.). Intensity values were normalized to those of the endogenous controls. The vehicle sample was set to 1. Enrichment was calculated as: (intensity IP/intensity input)/(intensity IgG/intensity input) or intensity IP/input (FIG. 1B).
LNCaP cells were treated with sulforaphane in a dose-response (5 μM to 20 μM) and time-course (12 and 24 hours) manner to investigate the effect of HDAC6 inhibition on AR protein levels. Western blotting was performed as described in Example 1. […]

AR [6] = assay: Real-time PCR of AR gene expression, LNCaP cells; format: cell-based; settings: increasing doses of sulforaphane, or TSA, vehicle set to 1
Excerpt: (§2) All samples were run in triplicate. The vehicle-treated sample was set to 1.

AR [7] = assay: Real-time PCR of AR gene expression, VCaP cells; format: cell-based; settings: 24 hours, increasing doses of sulforaphane, or TSA, vehicle set to 1
Excerpt: as §2

## CC1(C)CC[C@]2(C(=O)n3ccnc3)CC[C@]3(C)[C@H](C(=O)C=C4[C@@]5(C)C=C(C#N)C(=O)C(C)(C)[C@@H]5CC[C@]43C)[C@@H]2C1 [CDDO-Imidazole]
AR [1]
  AR protein levels: reduced AR protein levels
HDAC6 [2]; increasing concentrations of CDDO-Imidazole, 24 hours
  HDAC6 protein: depletes HDAC6 in a dose-dependent manner
Acetylated alpha-tubulin
  tubulin acetylation: increased tubulin acetylation
HDAC6 [3]
  HDAC6 protein: depletes HDAC6 in a dose-dependent manner
Acetylated tubulin
  tubulin acetylation: increased tubulin acetylation
AR [4]; TSA or increasing concentrations of CDDO-Imidazole (24 hours), compared with sulforaphane results
  AR protein levels: reduced AR protein levels
Her2Neu protein
  Her2Neu protein levels: deplete Her2Neu protein levels

## CC(C)C[C@@H](C=O)NC(=O)[C@H](CC(C)C)NC(=O)[C@H](CC(C)C)NC(=O)OCc1ccccc1 [MG132] (Cbz-Leu-Leu-Leu-aldehyde)
AR [4]; 24 hours, 10 μM MG132 versus vehicle
  AR protein levels, MG132 alone: did not change AR protein levels

## CC(/C=C/C(=O)NO)=C\[C@@H](C)C(=O)c1ccc(N(C)C)cc1 [TSA, trichostatin A]
AR [5]; 24 hours, sulforaphane 20 μM or 300 nM TSA with 10 μM MG132
  AR steady state level with simultaneous MG132 treatment: restored the AR steady state level close to that seen in the vehicle-treated control
AR [5]; 24 hours, sulforaphane 20 μM or 300 nM TSA, versus vehicle-treated cells
  AR protein in the absence of MG132: dramatic reductions
AR [5]; sulforaphane 15 μM and 20 μM, TSA
  AR protein levels at 24 hours: recovered
AR [6]
  AR transcripts: suppressed AR transcripts
AR [7]
  AR transcripts: suppressed AR transcripts
HDAC6 [2]; 16 hours, 300 nM TSA without or with 20 μM MG132
  HDAC6 protein levels: minimal effects
